Laboratory results as given in patent US20070128217A1 (priority 2003, published 2007).

Tests used:
[1] = system: recombinant human anti-SARS-CoV antibody 03-018; type: binding; design: Binding of antibody 03-018 to linear peptides of the N protein of SARS-CoV Urbani / Binding of antibody 03-018 to looped/cyclic peptides of the N protein of SARS-CoV Urbani: unit not given here
[2] = system: rabbit serum obtained by immunizing a rabbit with the SARS-CoV strain Frankfurt 1; type: binding; design: Binding of a rabbit serum to linear peptides / Binding of a rabbit serum to looped peptides / Rabbit serum linear peptides / Rabbit serum looped peptides / Binding of a rabbit serum to linear peptides of protein N of SARS-CoV Urbani (Rabbit serum linear peptides) / Binding of a rabbit serum to looped/cyclic peptides of protein N of SARS-CoV Urbani (Rabbit serum looped peptides): unit not given here
[3] = system: control sera (pooled serum of ten healthy LUMC hospital workers; commercial negative donor pooled serum from the Dutch bloodbank); type: binding, human; design: Binding of Control serum LUMC to linear peptides / Binding of Control serum Blood-bank to linear peptides / Binding of Control serum LUMC to looped peptides / Binding of Control Serum Blood-Bank to Looped peptides / Binding of Control serum LUMC to linear peptides of the protein M of SARS-CoV Urbani / Binding of Control serum Blood-bank to linear peptides of the protein M of SARS-CoV Urbani / Binding of Control serum LUMC to looped peptides of the protein M of SARS-CoV Urbani / Binding of Control Serum Blood-Bank to Looped peptides of the protein M of SARS-CoV Urbani: unit not given here
[4] = system: antibodies in sera from SARS patients (sera 1a, 1b, 2, 6, 37, 62, London, SARS-yellow, SARS-green); type: binding, human; design: Binding of serum 6 to linear peptides of protein X1 of SARS-CoV Urbani / Binding of serum 37 to linear peptides of protein X1 of SARS-CoV Urbani / Binding of serum 6 to looped/cyclic peptide (PEPSCAN-ELISA) / Binding of serum 37 to looped/cyclic peptide (PEPSCAN-ELISA) / Binding of serum 37 to looped/cyclic peptides of protein X1 of SARS-CoV Urbani / Binding of serum 6 to linear peptides of protein X2 / Binding of serum 37 to linear peptides of protein X2 / Binding of serum 37 to looped/cyclic peptides of protein X2 of SARS-CoV Urbani / Binding of serum 6 to linear peptides of protein M of SARS-CoV Urbani / Binding of serum 37 to linear peptides of protein M of SARS-CoV Urbani / Binding of serum 6 to looped/cyclic peptides of protein M of SARS-CoV Urbani / Binding of serum 37 to looped/cyclic peptides of protein M of SARS-CoV Urbani / Binding of serum 6 to linear peptides of protein X3 of SARS-CoV Urbani / Binding of serum 37 to linear peptides of protein X3 of SARS-CoV Urbani / Binding of serum 37 to looped/cyclic peptides of protein X3 of SARS-CoV Urbani / Binding of serum 6 to linear peptides of protein X4 of SARS-CoV Urbani / Binding of serum 37 to linear peptides of protein X4 of SARS-CoV Urbani / Binding of serum 37 to looped/cyclic peptides of protein X4 of SARS-CoV Urbani / Binding of serum 6 to linear peptides of protein X5 of SARS-CoV Urbani / Binding of serum 37 to linear peptides of protein X5 of SARS-CoV Urbani / Binding of serum 37 to looped/cyclic peptides of protein X5 of SARS-CoV Urbani / Binding of serum 6 to linear peptides of protein N of SARS-CoV Urbani / Binding of serum 37 to linear peptides of protein N of SARS-CoV Urbani / Binding of serum 6 to linear peptide (PEPSCAN-ELISA) / Binding of serum 1a to looped/cyclic peptides of protein N of SARS-CoV Urbani / Binding of serum 1b to looped/cyclic peptides of protein N of SARS-CoV Urbani / Binding of serum 2 to looped/cyclic peptides of protein N of SARS-CoV Urbani / Binding of serum 6 to looped/cyclic peptides of protein N of SARS-CoV Urbani / Binding of serum 37 to looped/cyclic peptides of protein N of SARS-CoV Urbani / Binding of serum 62 to looped/cyclic peptides of protein N of SARS-CoV Urbani / Binding of serum London to looped/cyclic peptides of protein N of SARS-CoV Urbani / Binding of serum SARS-green to looped/cyclic peptides of protein N of SARS-CoV Urbani: unit not given here

GGDGKMKELSPRWYF
Binding of antibody 03-018 to linear peptides of the N protein of SARS-CoV Urbani [1]: 0.1 | Binding of antibody 03-018 to looped/cyclic peptides of the N protein of SARS-CoV Urbani [1]: 0.2 | Binding of a rabbit serum to linear peptides of protein N of SARS-CoV Urbani (Rabbit serum linear peptides) [2]: 0.1 | Binding of a rabbit serum to looped/cyclic peptides of protein N of SARS-CoV Urbani (Rabbit serum looped peptides) [2]: 0.5 | Binding of Control Serum Blood-Bank to Looped peptides [3]: 0.8 | Binding of Control serum Blood-bank to linear peptides [3]: 0.8 | Binding of Control serum LUMC to linear peptides [3]: 0.7 | Binding of Control serum LUMC to looped peptides [3]: 0.7 | Binding of serum 1a to linear peptides of protein N of SARS-CoV Urbani [4]: 0.3 | Binding of serum 1a to looped/cyclic peptides of protein N of SARS-CoV Urbani [4]: 0.3 | Binding of serum 1b to linear peptides of protein N of SARS-CoV Urbani [4]: 0.1 | Binding of serum 1b to looped/cyclic peptides of protein N of SARS-CoV Urbani [4]: 0.2 | Binding of serum 2 to linear peptides of protein N of SARS-CoV Urbani [4]: 0.2 | Binding of serum 2 to looped/cyclic peptides of protein N of SARS-CoV Urbani [4]: 0.6 | Binding of serum 6 to linear peptides of protein N of SARS-CoV Urbani [4]: 0.2 | Binding of serum 6 to looped/cyclic peptides of protein N of SARS-CoV Urbani [4]: 0.3 | Binding of serum 37 to linear peptides of protein N of SARS-CoV Urbani [4]: 0.6 | Binding of serum 37 to looped/cyclic peptides of protein N of SARS-CoV Urbani [4]: 0.6 | Binding of serum 62 to linear peptides of protein N of SARS-CoV Urbani [4]: 0.7 | Binding of serum 62 to looped/cyclic peptides of protein N of SARS-CoV Urbani [4]: 0.6 | Binding of serum London to linear peptides of protein N of SARS-CoV Urbani [4]: 0.4 | Binding of serum London to looped/cyclic peptides of protein N of SARS-CoV Urbani [4]: 0.5 | Binding of serum SARS-green to linear peptides of protein N of SARS-CoV Urbani [4]: 0.2 | Binding of serum SARS-green to looped/cyclic peptides of protein N of SARS-CoV Urbani [4]: 0.5 | Binding of serum SARS-yellow to linear peptides of protein N of SARS-CoV Urbani [4]: 0.7 | Binding of serum SARS-yellow to looped/cyclic peptides of protein N of SARS-CoV Urbani [4]: 0.6

GGPTDSTDNNQNGGR
Binding of antibody 03-018 to linear peptides of the N protein of SARS-CoV Urbani [1]: 0.1 | Binding of antibody 03-018 to looped/cyclic peptides of the N protein of SARS-CoV Urbani [1]: 0.2 | Binding of a rabbit serum to linear peptides of protein N of SARS-CoV Urbani (Rabbit serum linear peptides) [2]: 0.1 | Binding of a rabbit serum to looped/cyclic peptides of protein N of SARS-CoV Urbani (Rabbit serum looped peptides) [2]: 0.1 | Binding of Control Serum Blood-Bank to Looped peptides [3]: 0.5 | Binding of Control serum Blood-bank to linear peptides [3]: 0.7 | Binding of Control serum LUMC to linear peptides [3]: 0.8 | Binding of Control serum LUMC to looped peptides [3]: 0.5 | Binding of serum 1a to linear peptides of protein N of SARS-CoV Urbani [4]: 0.3 | Binding of serum 1a to looped/cyclic peptides of protein N of SARS-CoV Urbani [4]: 0.3 | Binding of serum 1b to linear peptides of protein N of SARS-CoV Urbani [4]: 0.1 | Binding of serum 1b to looped/cyclic peptides of protein N of SARS-CoV Urbani [4]: 0.1 | Binding of serum 2 to linear peptides of protein N of SARS-CoV Urbani [4]: 0.3 | Binding of serum 2 to looped/cyclic peptides of protein N of SARS-CoV Urbani [4]: 0.4 | Binding of serum 6 to linear peptides of protein N of SARS-CoV Urbani [4]: 0.2 | Binding of serum 6 to looped/cyclic peptides of protein N of SARS-CoV Urbani [4]: 0.2 | Binding of serum 37 to linear peptides of protein N of SARS-CoV Urbani [4]: 0.7 | Binding of serum 37 to looped/cyclic peptides of protein N of SARS-CoV Urbani [4]: 0.5 | Binding of serum 62 to linear peptides of protein N of SARS-CoV Urbani [4]: 0.7 | Binding of serum 62 to looped/cyclic peptides of protein N of SARS-CoV Urbani [4]: 0.3 | Binding of serum London to linear peptides of protein N of SARS-CoV Urbani [4]: 0.6 | Binding of serum London to looped/cyclic peptides of protein N of SARS-CoV Urbani [4]: 0.3 | Binding of serum SARS-green to linear peptides of protein N of SARS-CoV Urbani [4]: 0.6 | Binding of serum SARS-green to looped/cyclic peptides of protein N of SARS-CoV Urbani [4]: 0.2 | Binding of serum SARS-yellow to linear peptides of protein N of SARS-CoV Urbani [4]: 0.6 | Binding of serum SARS-yellow to looped/cyclic peptides of protein N of SARS-CoV Urbani [4]: 0.2
